According to ChEMBL document CHEMBL3797178, “Synthesis, antimycobacterial and antibacterial activity of 1-(6-amino-3,5-difluoropyridin-2-yl)fluoroquinolone derivatives containing an oxime functional moiety” (2016):
Values after ≈ are worked out from the molar mass of the structure shown.

Assays:
Type in all cases: functional
[1] = system: Staphylococcus epidermidis; assay: Antibacterial activity against methicillin-sensitive Staphylococcus epidermidis 14-6 after 18 to 24 hrs by CLSI M100-S11 method
Enterococcus faecalis [2] = assay: Antibacterial activity against Enterococcus faecalis 14-1 after 18 to 24 hrs by CLSI M100-S11 method
Klebsiella pneumoniae [3] = assay: Antibacterial activity against extended-spectrum beta-lactamase-producing Klebsiella pneumoniae 14-17 after 18 to 24 hrs by CLSI M100-S11 method
Escherichia coli [4] = assay: Antibacterial activity against Escherichia coli ATCC 25922 after 18 to 24 hrs by CLSI M100-S11 method
Staphylococcus aureus [5] = assay: Antibacterial activity against methicillin-sensitive Staphylococcus aureus 14-3 after 18 to 24 hrs by CLSI M100-S11 method
Escherichia coli [6] = assay: Antibacterial activity against extended-spectrum beta-lactamase-producing Escherichia coli 14-1 after 18 to 24 hrs by CLSI M100-S11 method
Klebsiella pneumoniae [7] = assay: Antibacterial activity against extended-spectrum beta-lactamase-producing Klebsiella pneumoniae 14-18 after 18 to 24 hrs by CLSI M100-S11 method
Pseudomonas aeruginosa [8] = assay: Antibacterial activity against Pseudomonas aeruginosa ATCC 27853 after 18 to 24 hrs by CLSI M100-S11 method
Klebsiella pneumoniae [9] = assay: Antibacterial activity against Klebsiella pneumoniae 14-2 after 18 to 24 hrs by CLSI M100-S11 method
Pseudomonas aeruginosa [10] = assay: Antibacterial activity against Pseudomonas aeruginosa 14-9 after 18 to 24 hrs by CLSI M100-S11 method
Pseudomonas aeruginosa [11] = assay: Antibacterial activity against Pseudomonas aeruginosa 14-19 after 18 to 24 hrs by CLSI M100-S11 method
Klebsiella pneumoniae [12] = assay: Antibacterial activity against Klebsiella pneumoniae 14-4 after 18 to 24 hrs by CLSI M100-S11 method
Enterococcus faecium [13] = assay: Antibacterial activity against Enterococcus faecium 14-2 after 18 to 24 hrs by CLSI M100-S11 method
[14] = system: Mycobacterium tuberculosis; assay: Antimycobacterial activity against Mycobacterium tuberculosis H37Rv ATCC 27294 after 3 days by microplate Alamar Blue assay; conditions: H37Rv ATCC 27294, 72 h
Staphylococcus aureus [15] = assay: Antibacterial activity against methicillin-resistant Staphylococcus aureus 14-4 after 18 to 24 hrs by CLSI M100-S11 method
[16] = system: Staphylococcus epidermidis; assay: Antibacterial activity against methicillin-sensitive Staphylococcus epidermidis 14-4 after 18 to 24 hrs by CLSI M100-S11 method
Escherichia coli [17] = assay: Antibacterial activity against extended-spectrum beta-lactamase-producing Escherichia coli 14-2 after 18 to 24 hrs by CLSI M100-S11 method
Klebsiella pneumoniae [18] = assay: Antibacterial activity against Klebsiella pneumoniae 14-3 after 18 to 24 hrs by CLSI M100-S11 method
Pseudomonas aeruginosa [19] = assay: Antibacterial activity against Pseudomonas aeruginosa 14-15 after 18 to 24 hrs by CLSI M100-S11 method
Staphylococcus aureus [20] = assay: Antibacterial activity against methicillin-sensitive Staphylococcus aureus 14-4 after 18 to 24 hrs by CLSI M100-S11 method
[21] = system: Staphylococcus epidermidis; assay: Antibacterial activity against methicillin-resistant Staphylococcus epidermidis 14-22 after 18 to 24 hrs by CLSI M100-S11 method
Enterococcus faecalis [22] = assay: Antibacterial activity against Enterococcus faecalis 14-2 after 18 to 24 hrs by CLSI M100-S11 method
Streptococcus pneumoniae = assay: Antibacterial activity against Streptococcus pneumoniae ATCC 19615 after 18 to 24 hrs by CLSI M100-S11 method
Pseudomonas aeruginosa [23] = assay: Antibacterial activity against Pseudomonas aeruginosa 14-14 after 18 to 24 hrs by CLSI M100-S11 method
Enterococcus faecalis [24] = assay: Antibacterial activity against Enterococcus faecalis 14-3 after 18 to 24 hrs by CLSI M100-S11 method
[25] = system: Staphylococcus epidermidis; assay: Antibacterial activity against methicillin-sensitive Staphylococcus epidermidis 14-2 after 18 to 24 hrs by CLSI M100-S11 method
Escherichia coli [26] = assay: Antibacterial activity against Escherichia coli 14-2 after 18 to 24 hrs by CLSI M100-S11 method
Staphylococcus aureus [27] = assay: Antibacterial activity against methicillin-resistant Staphylococcus aureus 14-5 after 18 to 24 hrs by CLSI M100-S11 method
[28] = system: Staphylococcus epidermidis; assay: Antibacterial activity against methicillin-resistant Staphylococcus epidermidis 14-37 after 18 to 24 hrs by CLSI M100-S11 method
Staphylococcus aureus [29] = assay: Antibacterial activity against Staphylococcus aureus CMCC 26003 after 18 to 24 hrs by CLSI M100-S11 method
Pseudomonas aeruginosa [30] = assay: Antibacterial activity against Pseudomonas aeruginosa 14-16 after 18 to 24 hrs by CLSI M100-S11 method
Klebsiella pneumoniae [31] = assay: Antibacterial activity against extended-spectrum beta-lactamase-producing Klebsiella pneumoniae 14-19 after 18 to 24 hrs by CLSI M100-S11 method
Staphylococcus aureus [32] = assay: Antibacterial activity against methicillin-sensitive Staphylococcus aureus 14-2 after 18 to 24 hrs by CLSI M100-S11 method
Klebsiella pneumoniae [33] = assay: Antibacterial activity against Klebsiella pneumoniae 14-1 after 18 to 24 hrs by CLSI M100-S11 method
Enterococcus faecium [34] = assay: Antibacterial activity against Enterococcus faecium 14-1 after 18 to 24 hrs by CLSI M100-S11 method
Escherichia coli [35] = assay: Antibacterial activity against Escherichia coli 14-1 after 18 to 24 hrs by CLSI M100-S11 method
[36] = system: Staphylococcus epidermidis; assay: Antibacterial activity against methicillin-resistant Staphylococcus epidermidis 14-39 after 18 to 24 hrs by CLSI M100-S11 method

| Structure (SMILES) | MIC [1] | MIC (Enterococcus faecalis [2]) | MIC (Klebsiella pneumoniae [3]) | MIC (Escherichia coli [4]) | MIC (Staphylococcus aureus [5]) | MIC (Escherichia coli [6]) | MIC (Klebsiella pneumoniae [9]) | MIC (Klebsiella pneumoniae [12]) | MIC (Enterococcus faecium [13]) | MIC [14] | MIC (Staphylococcus aureus [15]) | MIC [16] | MIC (Escherichia coli [17]) | MIC (Klebsiella pneumoniae [18]) | MIC (Staphylococcus aureus [20]) | MIC [21] | MIC (Enterococcus faecalis [22]) | MIC (Enterococcus faecalis [24]) | MIC [25] | MIC (Escherichia coli [26]) | also measured |
| --- | --- | --- | --- | --- | --- | --- | --- | --- | --- | --- | --- | --- | --- | --- | --- | --- | --- | --- | --- | --- | --- |
| CO/N=C1\CCN(c2nc3c(cc2F)c(=O)c(C(=O)O)cn3-c2nc(N)c(F)cc2F)CC1N (stereo not drawn) | > 128 µg/mL | > 128 µg/mL | > 128 µg/mL | 16 µg/mL (≈ 33.5 µM) | 8 µg/mL (≈ 16.8 µM) | > 128 µg/mL | > 128 µg/mL | > 128 µg/mL | 64 µg/mL (≈ 134 µM) | > 32 µg/mL | > 128 µg/mL | > 128 µg/mL | > 128 µg/mL | > 128 µg/mL | 16 µg/mL (≈ 33.5 µM) | > 128 µg/mL | > 128 µg/mL | > 128 µg/mL | > 128 µg/mL | > 128 µg/mL | MIC (Klebsiella pneumoniae [7]): > 128 µg/mL; MIC (Pseudomonas aeruginosa [8]): 128 µg/mL (≈ 268 µM); MIC (Pseudomonas aeruginosa [10]): 128 µg/mL (≈ 268 µM); MIC (Pseudomonas aeruginosa [11]): 128 µg/mL (≈ 268 µM); MIC (Pseudomonas aeruginosa [19]): 128 µg/mL (≈ 268 µM); MIC (Streptococcus pneumoniae): 64 µg/mL (≈ 134 µM); MIC (Pseudomonas aeruginosa [23]): 128 µg/mL (≈ 268 µM); MIC (Staphylococcus aureus [27]): > 128 µg/mL; MIC [28]: > 128 µg/mL; MIC (Staphylococcus aureus [29]): 8 µg/mL (≈ 16.8 µM); MIC (Pseudomonas aeruginosa [30]): 128 µg/mL (≈ 268 µM); MIC (Klebsiella pneumoniae [31]): > 128 µg/mL; MIC (Staphylococcus aureus [32]): 8 µg/mL (≈ 16.8 µM); MIC (Klebsiella pneumoniae [33]): > 128 µg/mL; MIC (Enterococcus faecium [34]): > 128 µg/mL; MIC (Escherichia coli [35]): > 128 µg/mL |
| O=C(O)c1cn(C2CC2)c2cc(N3CCNCC3)c(F)cc2c1=O [CIPROFLOXACIN] |  |  |  |  |  |  |  |  |  | 0.25 µg/mL (≈ 0.754 µM) |  |  |  |  |  |  |  |  |  |  |  |
| NNC(=O)c1ccncc1 [ISONIAZID] |  |  |  |  |  |  |  |  |  | 0.05 µg/mL (≈ 0.365 µM) |  |  |  |  |  |  |  |  |  |  |  |
| C[C@H]1COc2c(N3CCN(C)CC3)c(F)cc3c(=O)c(C(=O)O)cn1c23.C[C@H]1COc2c(N3CCN(C)CC3)c(F)cc3c(=O)c(C(=O)O)cn1c23.O [LEVOFLOXACIN] | 2 µg/mL | 16 µg/mL | 4 µg/mL | 0.125 µg/mL | 0.125 µg/mL | 2 µg/mL | 8 µg/mL | 8 µg/mL | 1 µg/mL | 0.25 µg/mL | 64 µg/mL | 1 µg/mL | 8 µg/mL | 16 µg/mL | 0.5 µg/mL | 32 µg/mL | 32 µg/mL | 64 µg/mL | 128 µg/mL | 4 µg/mL | MIC [36]: 64 µg/mL; MIC (Staphylococcus aureus [27]): 8 µg/mL; MIC [28]: 64 µg/mL; MIC (Staphylococcus aureus [29]): 0.125 µg/mL; MIC (Klebsiella pneumoniae [31]): 64 µg/mL; MIC (Staphylococcus aureus [32]): 0.25 µg/mL; MIC (Klebsiella pneumoniae [33]): 16 µg/mL; MIC (Enterococcus faecium [34]): 128 µg/mL; MIC (Escherichia coli [35]): 4 µg/mL |
| CO[C@H]1/C=C/O[C@@]2(C)Oc3c(C)c(O)c4c(O)c(c(/C=N/N5CCN(C)CC5)c(O)c4c3C2=O)NC(=O)/C(C)=C\C=C\[C@H](C)[C@H](O)[C@@H](C)[C@@H](O)[C@@H](C)[C@H](OC(C)=O)[C@@H]1C [RIFAMPIN] |  |  |  |  |  |  |  |  |  | 0.05 µg/mL (≈ 0.0608 µM) |  |  |  |  |  |  |  |  |  |  |  |
